Columns and labels:
Assay in all cases: β-arrestin based GPCR screen (PathHunter / GPCRmax), agonist mode
Type in all cases: cell-based
Design in all cases: host or cells: PathHunter cell lines
168 GPCRs [1] = molecular target: 168 GPCRs (Homo sapiens, UniProt P08588); settings: ADRB1, Agonist
Experimental: (§1) For agonist determination, cells were incubated with sample to induce response. […] Vehicle concentration was 1%.

168 GPCRs [2] = molecular target: 168 GPCRs (Homo sapiens, UniProt P21462)
Experimental: as §1

168 GPCRs [3] = molecular target: 168 GPCRs (Homo sapiens, UniProt P41146)
Experimental: as §1

168 GPCRs [4] = molecular target: 168 GPCRs (Homo sapiens, UniProt P51684); settings: CCR6, Agonist
Experimental: as §1

168 GPCRs [5] = molecular target: 168 GPCRs (Homo sapiens, UniProt P43088); settings: PTGFR
Experimental: as §1

168 GPCRs [6] = molecular target: 168 GPCRs (Homo sapiens, UniProt P41231)
Experimental: as §1

168 GPCRs [7] = molecular target: 168 GPCRs (Homo sapiens, UniProt P29371)
Experimental: as §1

168 GPCRs [8] = molecular target: 168 GPCRs (Homo sapiens, UniProt P18825); settings: ADRA2C, Agonist
Experimental: as §1

168 GPCRs [9] = molecular target: 168 GPCRs (Homo sapiens, UniProt Q9H3N8)
Experimental: as §1

168 GPCRs [10] = molecular target: 168 GPCRs (Homo sapiens, UniProt Q96G91)
Experimental: as §1

168 GPCRs [11] = molecular target: 168 GPCRs (Homo sapiens, UniProt O95977)
Experimental: as §1

168 GPCRs [12] = molecular target: 168 GPCRs (Homo sapiens, UniProt O43613)
Experimental: as §1

168 GPCRs [13] = molecular target: 168 GPCRs (Homo sapiens, UniProt Q9H1C0)
Experimental: as §1

168 GPCRs [14] = molecular target: 168 GPCRs (Homo sapiens, UniProt P34998)
Experimental: as §1

168 GPCRs [15] = molecular target: 168 GPCRs (Homo sapiens, UniProt P21731); settings: TBXA2R
Experimental: as §1

168 GPCRs [16] = molecular target: 168 GPCRs (Homo sapiens, UniProt P32249)
Experimental: as §1

168 GPCRs [17] = molecular target: 168 GPCRs (Homo sapiens, UniProt P41968); settings: MC3R
Experimental: as §1

168 GPCRs [18] = molecular target: 168 GPCRs (Homo sapiens, UniProt P25024)
Experimental: as §1

168 GPCRs [19] = molecular target: 168 GPCRs (Homo sapiens, UniProt O43614)
Experimental: as §1

168 GPCRs [20] = molecular target: 168 GPCRs (Homo sapiens, UniProt P49682)
Experimental: as §1

168 GPCRs [21] = molecular target: 168 GPCRs (Homo sapiens, UniProt P25106)
Experimental: as §1

168 GPCRs [22] = molecular target: 168 GPCRs (Homo sapiens, UniProt O43603)
Experimental: as §1

168 GPCRs [23] = molecular target: 168 GPCRs (Homo sapiens, UniProt P30518); settings: AVPR2, Agonist
Experimental: as §1

Sequence of 168 GPCRs (Homo sapiens, UniProt Q9H3N8) (Q9H3N8 whole entry): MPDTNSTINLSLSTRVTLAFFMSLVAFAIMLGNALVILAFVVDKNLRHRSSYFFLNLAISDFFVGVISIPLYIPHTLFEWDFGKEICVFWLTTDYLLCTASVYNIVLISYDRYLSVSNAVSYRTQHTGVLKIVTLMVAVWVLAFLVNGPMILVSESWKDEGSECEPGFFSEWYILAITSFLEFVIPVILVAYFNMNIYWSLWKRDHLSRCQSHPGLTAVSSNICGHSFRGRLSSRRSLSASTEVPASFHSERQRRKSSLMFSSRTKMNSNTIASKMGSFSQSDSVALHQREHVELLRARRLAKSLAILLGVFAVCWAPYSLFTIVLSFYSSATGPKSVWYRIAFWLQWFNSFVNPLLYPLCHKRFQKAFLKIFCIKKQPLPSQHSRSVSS
Sequence of 168 GPCRs (Homo sapiens, UniProt P32249) (P32249 whole entry): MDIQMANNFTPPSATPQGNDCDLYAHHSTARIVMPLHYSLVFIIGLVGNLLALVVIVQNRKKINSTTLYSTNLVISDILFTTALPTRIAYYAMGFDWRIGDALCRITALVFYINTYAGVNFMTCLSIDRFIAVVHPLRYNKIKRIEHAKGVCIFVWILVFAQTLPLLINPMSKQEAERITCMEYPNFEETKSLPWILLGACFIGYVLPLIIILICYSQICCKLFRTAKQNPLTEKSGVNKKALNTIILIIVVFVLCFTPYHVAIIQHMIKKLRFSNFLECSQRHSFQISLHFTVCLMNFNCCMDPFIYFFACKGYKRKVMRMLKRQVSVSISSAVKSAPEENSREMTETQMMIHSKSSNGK
Sequence of 168 GPCRs (Homo sapiens, UniProt P29371) (P29371 whole entry): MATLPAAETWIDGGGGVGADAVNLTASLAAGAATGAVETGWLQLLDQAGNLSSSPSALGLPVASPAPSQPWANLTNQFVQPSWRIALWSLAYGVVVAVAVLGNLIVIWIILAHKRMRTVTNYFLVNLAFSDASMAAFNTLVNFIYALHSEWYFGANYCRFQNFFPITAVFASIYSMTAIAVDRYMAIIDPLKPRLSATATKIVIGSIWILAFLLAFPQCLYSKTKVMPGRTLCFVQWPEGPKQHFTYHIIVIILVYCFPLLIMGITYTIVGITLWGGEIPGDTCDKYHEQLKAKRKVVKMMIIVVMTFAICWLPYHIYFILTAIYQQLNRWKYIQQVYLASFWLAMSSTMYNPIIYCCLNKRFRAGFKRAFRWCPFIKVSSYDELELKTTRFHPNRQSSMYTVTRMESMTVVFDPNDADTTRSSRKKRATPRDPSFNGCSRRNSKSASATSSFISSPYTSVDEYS
Sequence of 168 GPCRs (Homo sapiens, UniProt P41146) (P41146 whole entry): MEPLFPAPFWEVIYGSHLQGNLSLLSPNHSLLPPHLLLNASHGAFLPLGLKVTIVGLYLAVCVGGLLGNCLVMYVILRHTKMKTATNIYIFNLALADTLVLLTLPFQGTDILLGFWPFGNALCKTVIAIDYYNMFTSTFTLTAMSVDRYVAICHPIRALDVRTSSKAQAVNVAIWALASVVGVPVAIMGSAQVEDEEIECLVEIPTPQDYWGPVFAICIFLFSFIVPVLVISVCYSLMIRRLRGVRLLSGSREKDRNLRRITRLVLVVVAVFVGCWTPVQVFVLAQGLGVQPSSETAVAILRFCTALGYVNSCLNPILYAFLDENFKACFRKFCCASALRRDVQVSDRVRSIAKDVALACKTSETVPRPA
Sequence of 168 GPCRs (Homo sapiens, UniProt P49682) (P49682 whole entry): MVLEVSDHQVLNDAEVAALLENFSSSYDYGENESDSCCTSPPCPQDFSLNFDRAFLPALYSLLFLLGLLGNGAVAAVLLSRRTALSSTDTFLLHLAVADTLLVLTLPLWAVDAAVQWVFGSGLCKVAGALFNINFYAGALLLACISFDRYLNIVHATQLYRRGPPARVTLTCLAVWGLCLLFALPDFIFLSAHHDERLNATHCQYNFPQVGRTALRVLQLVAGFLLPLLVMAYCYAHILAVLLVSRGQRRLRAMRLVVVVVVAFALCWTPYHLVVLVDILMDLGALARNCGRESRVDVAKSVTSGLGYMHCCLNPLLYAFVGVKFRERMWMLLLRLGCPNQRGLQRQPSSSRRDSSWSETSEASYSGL
Sequence of 168 GPCRs (Homo sapiens, UniProt Q96G91) (Q96G91 whole entry): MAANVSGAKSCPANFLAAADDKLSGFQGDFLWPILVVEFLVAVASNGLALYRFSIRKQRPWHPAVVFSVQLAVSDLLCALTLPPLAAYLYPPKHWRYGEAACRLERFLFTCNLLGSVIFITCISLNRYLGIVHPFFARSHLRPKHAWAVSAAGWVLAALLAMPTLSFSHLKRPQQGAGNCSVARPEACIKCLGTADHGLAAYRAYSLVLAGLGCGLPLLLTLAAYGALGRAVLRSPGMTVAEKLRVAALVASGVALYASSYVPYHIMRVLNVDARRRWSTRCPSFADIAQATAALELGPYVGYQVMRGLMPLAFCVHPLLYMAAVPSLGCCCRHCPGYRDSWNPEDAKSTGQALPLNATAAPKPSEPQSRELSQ
Sequence of 168 GPCRs (Homo sapiens, UniProt P41231) (P41231 whole entry): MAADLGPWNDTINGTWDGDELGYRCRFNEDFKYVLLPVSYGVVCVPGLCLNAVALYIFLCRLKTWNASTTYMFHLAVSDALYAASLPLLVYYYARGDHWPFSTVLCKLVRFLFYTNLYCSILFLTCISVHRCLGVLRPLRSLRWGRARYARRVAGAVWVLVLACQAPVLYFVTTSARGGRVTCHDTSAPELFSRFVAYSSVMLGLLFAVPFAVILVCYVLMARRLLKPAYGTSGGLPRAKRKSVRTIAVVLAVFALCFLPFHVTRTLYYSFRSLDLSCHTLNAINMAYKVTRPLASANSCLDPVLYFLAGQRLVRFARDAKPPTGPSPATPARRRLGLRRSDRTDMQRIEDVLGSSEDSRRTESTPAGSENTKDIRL
Sequence of 168 GPCRs (Homo sapiens, UniProt P41968) (P41968 whole entry): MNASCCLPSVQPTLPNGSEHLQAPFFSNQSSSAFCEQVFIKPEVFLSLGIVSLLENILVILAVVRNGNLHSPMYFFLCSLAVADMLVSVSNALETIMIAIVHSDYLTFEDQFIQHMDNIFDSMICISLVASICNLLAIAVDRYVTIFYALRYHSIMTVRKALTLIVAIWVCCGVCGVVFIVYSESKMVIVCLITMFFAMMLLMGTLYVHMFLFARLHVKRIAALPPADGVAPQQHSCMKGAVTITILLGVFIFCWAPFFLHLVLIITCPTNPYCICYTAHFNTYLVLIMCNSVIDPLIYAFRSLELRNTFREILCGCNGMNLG
Sequence of 168 GPCRs (Homo sapiens, UniProt P30518) (P30518 whole entry): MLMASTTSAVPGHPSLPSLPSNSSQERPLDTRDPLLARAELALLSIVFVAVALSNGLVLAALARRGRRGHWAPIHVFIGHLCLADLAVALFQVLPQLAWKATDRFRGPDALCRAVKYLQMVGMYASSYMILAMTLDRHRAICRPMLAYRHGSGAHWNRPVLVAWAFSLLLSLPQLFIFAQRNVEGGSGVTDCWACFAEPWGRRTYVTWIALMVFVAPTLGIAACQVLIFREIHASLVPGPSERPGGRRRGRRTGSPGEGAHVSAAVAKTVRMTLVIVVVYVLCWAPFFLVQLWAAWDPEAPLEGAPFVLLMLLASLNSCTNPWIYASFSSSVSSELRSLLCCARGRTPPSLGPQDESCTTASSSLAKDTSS
Sequence of 168 GPCRs (Homo sapiens, UniProt P08588) (P08588 whole entry): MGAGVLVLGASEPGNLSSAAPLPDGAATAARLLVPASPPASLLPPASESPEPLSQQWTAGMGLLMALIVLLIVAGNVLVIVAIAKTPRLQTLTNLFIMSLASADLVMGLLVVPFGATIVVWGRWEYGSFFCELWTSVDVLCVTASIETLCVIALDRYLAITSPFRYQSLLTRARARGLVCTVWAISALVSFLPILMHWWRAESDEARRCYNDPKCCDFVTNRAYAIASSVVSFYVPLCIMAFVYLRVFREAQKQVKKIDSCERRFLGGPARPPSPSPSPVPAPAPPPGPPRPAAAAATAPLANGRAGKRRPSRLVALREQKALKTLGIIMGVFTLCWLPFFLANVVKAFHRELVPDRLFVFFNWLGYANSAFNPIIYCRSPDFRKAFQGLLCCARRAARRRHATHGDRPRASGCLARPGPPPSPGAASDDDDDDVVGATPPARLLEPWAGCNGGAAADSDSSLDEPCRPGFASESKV
Sequence of 168 GPCRs (Homo sapiens, UniProt P21731) (P21731 whole entry): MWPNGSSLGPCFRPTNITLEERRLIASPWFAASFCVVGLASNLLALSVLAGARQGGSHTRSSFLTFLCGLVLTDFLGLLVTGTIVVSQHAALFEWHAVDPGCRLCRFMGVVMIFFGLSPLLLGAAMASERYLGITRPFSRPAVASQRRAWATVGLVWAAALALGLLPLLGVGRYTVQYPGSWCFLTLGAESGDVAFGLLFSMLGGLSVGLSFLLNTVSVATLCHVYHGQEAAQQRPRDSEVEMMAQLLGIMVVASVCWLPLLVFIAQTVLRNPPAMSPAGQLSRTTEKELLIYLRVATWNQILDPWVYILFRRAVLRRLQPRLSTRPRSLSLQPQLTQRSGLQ
Sequence of 168 GPCRs (Homo sapiens, UniProt O95977) (O95977 whole entry): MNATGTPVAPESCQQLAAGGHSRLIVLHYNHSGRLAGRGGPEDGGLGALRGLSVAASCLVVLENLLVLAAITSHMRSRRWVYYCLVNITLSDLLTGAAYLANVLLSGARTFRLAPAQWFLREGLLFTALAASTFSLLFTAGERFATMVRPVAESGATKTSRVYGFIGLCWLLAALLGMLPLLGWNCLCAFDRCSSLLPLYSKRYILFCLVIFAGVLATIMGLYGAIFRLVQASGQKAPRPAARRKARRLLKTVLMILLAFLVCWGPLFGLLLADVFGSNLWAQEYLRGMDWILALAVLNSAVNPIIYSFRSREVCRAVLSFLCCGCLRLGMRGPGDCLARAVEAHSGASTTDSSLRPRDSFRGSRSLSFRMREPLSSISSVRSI

CNC(C)C(=O)c1ccc2c(c1)OCO2 (stereo not shown) [methylone, 3,4-methylenedioxy-N-methylcathinone]
activity at 1 µM (168 GPCRs [1]; 1 uM): -1.7% | activity at 10 µM (168 GPCRs [1]; 10 uM): -1.4% | activity at 10 µM (168 GPCRs [2]; FPR1, Agonist mode, 10 uM): 0.5% | activity at 1 µM (168 GPCRs [2]; FPR1, Agonist, 1 uM): 2.2% | activity at 10 µM (168 GPCRs [3]; OPRL1, Agonist mode, 10 uM): -2.3% | activity at 1 µM (168 GPCRs [3]; OPRL1, Agonist, 1 uM): -1.6% | activity at 1 µM (168 GPCRs [4]; 1 uM): -2.9% | activity at 10 µM (168 GPCRs [4]; 10 uM): -3.3% | activity at 10 µM (168 GPCRs [5]; Agonist mode, 10 uM): -0.2% | activity at 1 µM (168 GPCRs [5]; Agonist, 1 uM): 0.3% | activity at 10 µM (168 GPCRs [6]; P2RY2, Agonist mode, 10 uM): -2.7% | activity at 1 µM (168 GPCRs [6]; P2RY2, Agonist, 1 uM): -2.1% | activity at 10 µM (168 GPCRs [7]; TACR3, Agonist mode, 10 uM): 1.1% | activity at 1 µM (168 GPCRs [7]; TACR3, Agonist, 1 uM): 0.8% | activity at 1 µM (168 GPCRs [8]; 1 uM): -2.5% | activity at 10 µM (168 GPCRs [8]; 10 uM): 0.1% | activity at 1 µM (168 GPCRs [9]; HRH4, Agonist, 1 uM): 8.6% | activity at 10 µM (168 GPCRs [9]; IHRH4, Agonist mode, 10 uM): 9% | activity at 10 µM (168 GPCRs [10]; P2RY11, Agonist mode, 10 uM): -0.3% | activity at 1 µM (168 GPCRs [10]; P2RY11, Agonist, 1 uM): 0.5% | activity at 10 µM (168 GPCRs [11]; EDG6, Agonist mode, 10 uM): 0.3% | activity at 1 µM (168 GPCRs [11]; EDG6, Agonist, 1 uM): -1.7% | activity at 10 µM (168 GPCRs [12]; HCRTR1, Agonist mode, 10 uM): -0.1% | activity at 1 µM (168 GPCRs [12]; HCRTR1, Agonist, 1 uM): -0.1% | activity at 10 µM (168 GPCRs [13]; GPR92, Agonist mode, 10 uM): -3.5% | activity at 1 µM (168 GPCRs [13]; GPR92, Agonist, 1 uM): -1.6% | activity at 10 µM (168 GPCRs [14]; CRHR1, Agonist mode, 10 uM): 1.1% | activity at 1 µM (168 GPCRs [14]; CRHR1, Agonist, 1 uM): 1.4% | activity at 10 µM (168 GPCRs [15]; Agonist mode, 10 uM): -2.95% | activity at 1 µM (168 GPCRs [15]; Agonist, 1 uM): -1.1% | activity at 10 µM (168 GPCRs [16]; EBI2, Agonist mode, 10 uM): 0.1% | activity at 1 µM (168 GPCRs [16]; EBI2, Agonist, 1 uM): 0.5% | activity at 10 µM (168 GPCRs [17]; Agonist mode, 10 uM): -1.8% | activity at 1 µM (168 GPCRs [17]; Agonist, 1 uM): -3.2% | activity at 10 µM (168 GPCRs [18]; CXCR1, Agonist mode, 10 uM): 0.1% | activity at 1 µM (168 GPCRs [18]; CXCR1, Agonist, 1 uM): -0.5% | activity at 10 µM (168 GPCRs [19]; HCRTR2, Agonist mode, 10 uM): 0.2% | activity at 1 µM (168 GPCRs [19]; HCRTR2, Agonist, 1 uM): 0.2% | activity at 10 µM (168 GPCRs [20]; CXCR3, Agonist mode, 10 uM): 1.6% | activity at 1 µM (168 GPCRs [20]; CXCR3, Agonist, 1 uM): -0.2% | activity at 10 µM (168 GPCRs [21]; CXCR7, Agonist mode, 10 uM): -0.8% | activity at 1 µM (168 GPCRs [21]; CXCR7, Agonist, 1 uM): -1.3% | activity at 10 µM (168 GPCRs [22]; GALR2, Agonist mode, 10 uM): 1.9% | activity at 1 µM (168 GPCRs [22]; GALR2, Agonist, 1 uM): 3.4% | activity at 1 µM (168 GPCRs [23]; 1 uM): -0.9% | activity at 10 µM (168 GPCRs [23]; 10 uM): 1%
